Here are results for 21 compounds from PubChem BioAssay AID330 (DTP/NCI, 2004).

The test concerns P388 leukemia ip, CD2F1 mice, survival T/C. Kind of test: NCI In Vivo Anticancer Drug Screen. Data for tumor model P388 Leukemia (intraperitoneal) in CD2F1 (CDF1) mice. Particulars: endpoint: median survival time, higher = longer survival. The essentials:
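Mice carrying the transplanted tumor received test compound or vehicle. Survival was recorded in each group, and the value is the treated-group measurement divided by that of the vehicle-treated control group.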

The mark [1] stands for this setting: dose: 60.0 mg/kg/injection, schedule: Q01DX005 (ip), vehicle: saline with Tween-80.
[2] abbreviates: dose: 120.0 mg/kg/injection, schedule: Q01DX005 (ip), vehicle: saline with Tween-80.
[3] abbreviates: dose: 240.0 mg/kg/injection, schedule: Q01DX005 (ip), vehicle: saline with Tween-80.
[4] abbreviates: dose: 60.0 mg/kg/injection, schedule: Q01DX005 (ip), vehicle: Klucel (hydroxypropylcellulose) (HPC).
The mark [5] stands for this setting: dose: 120.0 mg/kg/injection, schedule: Q01DX005 (ip), vehicle: Klucel (hydroxypropylcellulose) (HPC).
Setting [6] is: dose: 50.0 mg/kg/injection, schedule: Q01DX009 (ip), vehicle: saline with Tween-80.
Setting [7] is: dose: 100.0 mg/kg/injection, schedule: Q01DX009 (ip), vehicle: saline with Tween-80.
Where [8] appears, read: dose: 6.25 mg/kg/injection, schedule: Q01DX009 (ip), vehicle: saline with Tween-80.
[9] abbreviates: dose: 12.5 mg/kg/injection, schedule: Q01DX009 (ip), vehicle: saline with Tween-80.
The mark [10] stands for this setting: dose: 200.0 mg/kg/injection, schedule: Q01DX001 (ip), vehicle: Klucel (hydroxypropylcellulose) (HPC).

The structures appear in SMILES notation. Where “and” joins values, the source holds several entries; their conditions need not be identical. Equal entries are not always repeated. Inconclusive results and toxic doses are left out.

For the compound `Clc1cc(Cl)nc(N2CC2)n1`, the T/C runs as follows: (dose: 5.0 mg/kg/injection, schedule: Q01DX009 (ip), vehicle: saline with Tween-80) 116 % of control; (dose: 5.0 mg/kg/injection, schedule: Q04DX003 (ip), vehicle: saline with Tween-80) 100 % of control; (dose: 10.0 mg/kg/injection, schedule: Q01DX009 (ip), vehicle: saline with Tween-80) 100 % of control; (dose: 10.0 mg/kg/injection, schedule: Q04DX003 (ip), vehicle: saline with Tween-80) 104 % of control; (dose: 20.0 mg/kg/injection, schedule: Q04DX003 (ip), vehicle: saline with Tween-80) 118 % of control.
With `Nc1cc(-c2ccc(Cl)cc2)nn1-c1nnc2c(n1)[nH]c1ccccc12`, the T/C by setting is: (dose: 100.0 mg/kg/injection, schedule: Q04DX002 (ip), vehicle: saline with Tween-80) 92 % of control; (dose: 200.0 mg/kg/injection, schedule: Q04DX002 (ip), vehicle: saline with Tween-80) 94 % of control; (dose: 400.0 mg/kg/injection, schedule: Q04DX002 (ip), vehicle: saline with Tween-80) 99 % of control.
Turning to `Cc1cc(NCCCCCCNc2cc(C)nc3cc([N+](=O)[O-])ccc23)c2ccc([N+](=O)[O-])cc2n1`, the T/C was 98 % of control (dose: 50.0 mg/kg/injection, schedule: Q01DX009 (ip), vehicle: other); 99 % of control (dose: 100.0 mg/kg/injection, schedule: Q01DX009 (ip), vehicle: other); 96 % of control (dose: 200.0 mg/kg/injection, schedule: Q01DX009 (ip), vehicle: other); 103 % of control (dose: 400.0 mg/kg/injection, schedule: Q01DX009 (ip), vehicle: other).
`COc1cc(C(Nc2ccccn2)c2cc3c(cc2O)OCO3)cc(OC)c1OC` (stereo not given): the T/C under setting [1] was 100 % of control, the T/C under setting [2] was 94 % of control and the T/C under setting [3] was 94 % of control.
Consider `CCOC(=O)c1c(N=P(c2ccccc2)(c2ccccc2)c2ccccc2)n(C)c(=O)n(C)c1=O`, for which the T/C by setting is: under setting [4], 105 % of control; under setting [5], 99 % of control; (dose: 240.0 mg/kg/injection, schedule: Q01DX005 (ip), vehicle: Klucel (hydroxypropylcellulose) (HPC)) 98 % of control.
As to `COC(=O)C1CCc2c(cnn2-c2ccccn2)C1` (stereo not given), the T/C is 97 % of control under setting [6]; 101 % of control under setting [7]; 100 % of control (dose: 200.0 mg/kg/injection, schedule: Q01DX009 (ip), vehicle: saline with Tween-80).
Consider `CC(=O)O/C(C)=C1\CCn2c1nc1ccccc1c2=O`, for which the T/C under setting [1] is 104 % of control, the T/C under setting [2] was 107 % of control and the T/C under setting [3] was 101 % of control.
Take `CCC(C(=O)Nc1ccccc1-c1ccccc1)c1ccccc1` (stereo not given): the T/C reads like this: under setting [8], 110 % of control; under setting [9], 101 % of control; (dose: 25.0 mg/kg/injection, schedule: Q01DX009 (ip), vehicle: saline with Tween-80) 96 % of control; (dose: 100.0 mg/kg/injection, schedule: Q01DX009 (ip), vehicle: saline) 96 % of control; (dose: 200.0 mg/kg/injection, schedule: Q01DX009 (ip), vehicle: saline) 87 % of control.
As to `CC12CCC(O)CC1CCC1C2CCC2(C)C(c3ccc(=O)oc3)CCC12O` (stereo not given), the T/C by setting is: (dose: 0.31 mg/kg/injection, schedule: Q01DX009 (ip), vehicle: saline with Tween-80) 100 % of control; (dose: 0.62 mg/kg/injection, schedule: Q01DX009 (ip), vehicle: saline with Tween-80) 97 % of control; (dose: 1.25 mg/kg/injection, schedule: Q01DX009 (ip), vehicle: saline with Tween-80) 97 % of control; (dose: 2.5 mg/kg/injection, schedule: Q01DX009 (ip), vehicle: saline with Tween-80) 103 % of control.
On to `Nc1c(Cl)c(Cl)c(Br)c(Cl)c1Cl`, for which the T/C reads like this: under setting [6], 92 % of control; under setting [7], 90 % of control.
With `CS(=O)(=O)OCC(O)C(O)C(O)C(O)COS(C)(=O)=O` (stereo not given), the T/C was 100 % of control (dose: 50.0 mg/kg/injection, schedule: Q01DX010 (ip), vehicle: saline); 100 % of control (dose: 100.0 mg/kg/injection, schedule: Q01DX010 (ip), vehicle: saline); 172 % of control (dose: 200.0 mg/kg/injection, schedule: Q01DX010 (ip), vehicle: saline); 209 % of control (dose: 400.0 mg/kg/injection, schedule: Q01DX010 (ip), vehicle: saline).
For the compound `Ic1ccc(N=Cc2ccc(C=Nc3ccc(I)cc3)cc2)cc1`, the T/C is, setting by setting: (dose: 12.5 mg/kg/injection, schedule: Q01DX009 (ip), vehicle: Klucel (hydroxypropylcellulose) (HPC)) 99 % of control; (dose: 25.0 mg/kg/injection, schedule: Q01DX009 (ip), vehicle: Klucel (hydroxypropylcellulose) (HPC)) 95 % of control; (dose: 50.0 mg/kg/injection, schedule: Q01DX009 (ip), vehicle: Klucel (hydroxypropylcellulose) (HPC)) 100 % of control; (dose: 100.0 mg/kg/injection, schedule: Q01DX009 (ip), vehicle: Klucel (hydroxypropylcellulose) (HPC)) 86 % of control; (dose: 200.0 mg/kg/injection, schedule: Q01DX009 (ip), vehicle: Klucel (hydroxypropylcellulose) (HPC)) 89 % of control.
Regarding `C=CC(=NC(C)(C)C)N(CC)CC`, the T/C is, setting by setting: (dose: 15.0 mg/kg/injection, schedule: Q01DX005 (ip), vehicle: saline with Tween-80) 103 % of control; (dose: 30.0 mg/kg/injection, schedule: Q01DX005 (ip), vehicle: saline with Tween-80) 105 % of control; under setting [1], 100 % of control and 106 % of control.
Take `[I][Hg][CH2]C1COCC([CH2][Hg][I])O1.[I][Hg][CH2]C1COCC([CH2][Hg][I])O1` (stereo not given): the T/C reads like this: (dose: 3.13 mg/kg/injection, schedule: Q01DX009 (ip), vehicle: saline with Tween-80) 109 % of control; (dose: 3.13 mg/kg/injection, schedule: Q04DX003 (ip), vehicle: saline with Tween-80) 109 % of control; under setting [8], 113 % of control; (dose: 6.25 mg/kg/injection, schedule: Q04DX003 (ip), vehicle: saline with Tween-80) 86 % of control; under setting [9], 118 % of control; (dose: 12.5 mg/kg/injection, schedule: Q04DX003 (ip), vehicle: saline with Tween-80) 100 % of control.
`CN(C)c1ccc(/C=N/NC(=O)c2ccccc2N)cc1`: the T/C is 103 % of control under setting [1], 100 % of control under setting [2] and 98 % of control under setting [3].
As to `CCN1C=C/C(=C/c2cc3scc(-c4ccccc4)[n+]3c3ccccc23)c2ccccc21`, under “dose: 0.32 mg/kg/injection, schedule: Q04DX003 (ip), vehicle: saline sonified”, the T/C was 109 % of control.
For `c1ccc(-c2ccc(-c3cn4c(n3)SCC4)cc2)cc1`, under setting [10], the T/C is 91 % of control.
Consider `COc1cc2cc[n+]3c(C)c4cc5c(cc4cc3c2cc1OC)OCO5` (tested in a mixture with another compound), for which the T/C is, setting by setting: (dose: 0.88 mg/kg/injection, schedule: Q01DX009 (ip), vehicle: saline) 124 % of control; (dose: 8.33 mg/kg/injection, schedule: Q01DX009 (ip), vehicle: saline) 166 % of control; (dose: 12.5 mg/kg/injection, schedule: Q01DX009 (ip), vehicle: saline) 175 % of control; (dose: 18.7 mg/kg/injection, schedule: Q01DX009 (ip), vehicle: saline) 198 % of control.
In the case of `O=c1[nH]c2c([N+](=O)[O-])cc(Cl)cc2nc1/C=C(\O)c1ccccc1`, the T/C is, setting by setting: under setting [4], 105 % of control; under setting [5], 106 % of control.
Turning to `CCOP(=O)(OCC)C1CCC(=O)O1` (stereo not given), the T/C was 100 % of control (dose: 15.0 mg/kg/injection, schedule: Q01DX005 (ip), vehicle: saline); 99 % of control (dose: 30.0 mg/kg/injection, schedule: Q01DX005 (ip), vehicle: saline); 99 % of control and 94 % of control (dose: 60.0 mg/kg/injection, schedule: Q01DX005 (ip), vehicle: saline).
As to `COc1cc(N=C=S)ccc1NC(=O)c1cc(Br)cc(Br)c1O`, the T/C reads like this: (dose: 100.0 mg/kg/injection, schedule: Q01DX001 (ip), vehicle: Klucel (hydroxypropylcellulose) (HPC)) 106 % of control; under setting [10], 101 % of control; (dose: 400.0 mg/kg/injection, schedule: Q01DX001 (ip), vehicle: Klucel (hydroxypropylcellulose) (HPC)) 106 % of control.
